What was measured:
endocrine pancreas = test: serial PET imaging with [11C]DTBZ in the spontaneously diabetic BB-DP rat model; assay type: in vivo; details: series of ten BB-DP rats, compared with IPGTT
Procedure: Blood samples were collected from the rat tail vein. The blood glucose (BG) levels of the rats were monitored daily using an Accu-Check blood glucose monitoring system (Roche Diagnostics, Somerville, N.J.). […] After baseline BG measurements, animals received an intraperitoneal injection of 1 g glucose/kg body wt. BG concentrations were measured again 5, 10, 15, 30, 60, and 120 min later. Animals were considered diabetic when four consecutive BG values were above 300 mg/dL and had abnormal IPGTT responses. Animals were imaged at baseline before the development of diabetes at day 45.
PET scans were performed serially on the study subject at approximately day 50 and then every two weeks until the animals developed stable diabetes. Prior to imaging, the animals were anesthetized with intrapertioneal injections of ketamine and xylazine. After a whole-body transmission scan had been obtained (used to perform attenuation correction of the emission data), the radioligand was taken up in a sterile saline vehicle and 200-300 μCi of [11C] DTBZ was administered in a bolus injection via the penile vein. PET scans of the animals were acquired dynamically to 60 min post injection on a Concorde microPET-R4 (CTI Molecular Imaging, Knoxville, Tenn., USA). The scanner provided a 100×80 mm field of view with a reconstructed resolution of 2.25 mm in the central 40 mm of the field of view. […]

[1] = test system: membranes from the exocrine pancreas; test: binding of [3H]DTBZ to total membrane fractions from purified exocrine pancreas tissue; set-up: species or system human
From the text: (§1) Previous studies, at both protein and nucleic acid levels, have shown the underlying physiochemical basis for this functional similarity (Atouf, et al, 1997, Expression of neuronal traits in pancreatic beta cells. Implication of neuron-restrictive silencing factor/repressor element silencing transcription factor, a neuron-restrictive silencer, J Biol Chem 272:1929-1934, Bernal-Mizrachi, et al, 2003, Gene expression profiling in islet biology and diabetes research, Diabetes Metab Res Rev 19:32-42, and […] al, 1996, Differentiation and growth of pancreatic beta cells, Diabetes Metab 22:223-228). The inventors own gene expression mapping studies led them to focus on one such shared gene product, VMAT2, vesicular monoamine transporter type 2, expressed by β-cells, but absent from the exocrine pancreas and a variety of-the other abdominal organs ([…], et al, 2004, Identification of tissue-restricted transcripts in human islets, Endocrinology 145:4513-4521). A specific ligand for VMAT2, dihydrotetrabenazine (DTBZ) is already in clinical use for positron emission tomography (PET) imaging of central nervous system disorders (Vander Borght, et al, 1995, In vivo imaging of the brain vesicular monoamine transporter, J Nucl Med 36:2252-2260). The inventors studied the binding of [3H]DTBZ to total membranes fractions prepared from purified human islets and purified exocrine pancreas tissue.

[2] = test system: islet membranes (purified human islets); test: binding of [3H]DTBZ to total membrane fractions from purified human islets
From the text: as §1

[3] = molecular target: T1, VMAT2 expressed by β-cells of the endocrine pancreas (Rattus norvegicus, UniProt Q01827); test: PET imaging with [11C]DTBZ of normal and STZ induced diabetic Lewis rats; assay type: in vivo
T1 construct: The inventors next targeted VMAT2 expressed by β-cells of the endocrine pancreas with [11C]; DTBZ; from tissue; host or cells: pancreas (beta cells of the islets) of living Lewis rats, normal and STZ-induced diabetic
Procedure: Specific activities of carbon-11 labeled radiotracers were >2000 mCi/μmol at the time of injection.
STZ solution was prepared fresh by dissolving it in 0.1 M citrate buffer (pH 5.5) and terminally sterile filtered. Age and weight-matched control rats were injected with citrate buffer alone.
PET scans were performed on four normal and three diabetic adult rat subjects. Prior to imaging, the animals were anesthetized with intraperitoneal injections of ketamine and xylazine. After a whole-body transmission scan had been obtained (used to perform attenuation correction of the emission data), the radioligand was taken up in a sterile saline vehicle and 200-300 μCi of [11C] DTBZ was administered in a bolus injection via the penile vein. PET scans of the animals were acquired dynamically to 60 min postinjection on a Concorde microPET-R4 (CTI Molecular Imaging, Knoxville, Tenn., USA). The scanner provided a 100×80 mm field of view with a reconstructed resolution of 2.25 mm in the central 40 mm of the field of view. PET data were processed using attenuation correction matrix obtained by transmission scans and images were reconstructed using Fourier re-binning, followed by two-dimensional, filtered back projection. […]

VMAT2 = details: previous studies (Scherman et al.); cited from earlier work

T1 sequence (Q01827 whole entry): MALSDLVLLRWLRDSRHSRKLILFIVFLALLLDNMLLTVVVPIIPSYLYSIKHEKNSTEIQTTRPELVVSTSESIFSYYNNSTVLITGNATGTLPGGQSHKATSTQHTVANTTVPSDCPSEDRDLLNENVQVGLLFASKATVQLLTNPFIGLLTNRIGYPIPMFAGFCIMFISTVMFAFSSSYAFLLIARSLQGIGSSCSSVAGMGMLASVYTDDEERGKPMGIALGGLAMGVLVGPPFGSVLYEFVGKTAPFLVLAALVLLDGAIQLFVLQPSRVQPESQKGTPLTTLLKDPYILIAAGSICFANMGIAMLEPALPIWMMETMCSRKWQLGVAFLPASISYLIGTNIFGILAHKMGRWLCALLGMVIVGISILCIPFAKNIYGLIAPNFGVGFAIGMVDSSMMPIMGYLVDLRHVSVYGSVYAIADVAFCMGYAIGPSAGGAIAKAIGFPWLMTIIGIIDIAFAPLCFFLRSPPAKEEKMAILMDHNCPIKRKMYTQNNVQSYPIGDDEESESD

COc1cc2c(cc1O[11CH3])CCN1CC(CC(C)C)C(O)CC21 (stereo not drawn) [[11C]DTBZ, [11C] dihydrotetrabenazine]
reduction of [11C]DTBZ uptake that resulted in signs of glucose intolerance and hyperglycemia (endocrine pancreas): approximately 50%

COc1cc2c(cc1OC)[C@H]1C[C@@H](O)[C@H](CC(C)C)CN1CC2 [[3H]DTBZ]
binding of [3H]DTBZ to membranes from the exocrine pancreas [1]: not | binding of [3H]DTBZ to islet membranes [2]: specifically bound

COc1cc2c(cc1OC)[C@H]1C[C@@H](O)[C@H](CC(C)C)CN1CC2 [DTBZ, dihydrotetrabenazine]
DTBZ uptake in gastric and splenic regions of the pancreas compared to the head of the organ ([3]; normal rat pancreata, PET): higher | time post-injection up to which pancreatic DTBZ uptake increased monotonically ([3]; normal rat, 60 min imaging period, from 1 minute): about 50 minutes | target specificity of DTBZ (VMAT2): specifically targets VMAT2
